# Values of other authors as cited in PMC5874719, “A π-Halogen Bond of Dibenzofuranones with the Gatekeeper Phe113 in Human Protein Kinase CK2 Leads to Potent Tight Binding Inhibitors” (Pharmaceuticals, 2018).
# Key:
# PIM1 = PIM1 (Homo sapiens, UniProt P11309); design: method as in PMID 22387500; details: 10 µM inhibitor; cited from earlier work
# FLT4/VEGFR3 = FLT4/VEGFR3 (Homo sapiens, UniProt P35916); design: purchased Reaction Biology Corp; method as in PMID 22387500; details: 10 µM inhibitor; cited from earlier work
# Sequence of FLT4/VEGFR3 (P35916 25-1363): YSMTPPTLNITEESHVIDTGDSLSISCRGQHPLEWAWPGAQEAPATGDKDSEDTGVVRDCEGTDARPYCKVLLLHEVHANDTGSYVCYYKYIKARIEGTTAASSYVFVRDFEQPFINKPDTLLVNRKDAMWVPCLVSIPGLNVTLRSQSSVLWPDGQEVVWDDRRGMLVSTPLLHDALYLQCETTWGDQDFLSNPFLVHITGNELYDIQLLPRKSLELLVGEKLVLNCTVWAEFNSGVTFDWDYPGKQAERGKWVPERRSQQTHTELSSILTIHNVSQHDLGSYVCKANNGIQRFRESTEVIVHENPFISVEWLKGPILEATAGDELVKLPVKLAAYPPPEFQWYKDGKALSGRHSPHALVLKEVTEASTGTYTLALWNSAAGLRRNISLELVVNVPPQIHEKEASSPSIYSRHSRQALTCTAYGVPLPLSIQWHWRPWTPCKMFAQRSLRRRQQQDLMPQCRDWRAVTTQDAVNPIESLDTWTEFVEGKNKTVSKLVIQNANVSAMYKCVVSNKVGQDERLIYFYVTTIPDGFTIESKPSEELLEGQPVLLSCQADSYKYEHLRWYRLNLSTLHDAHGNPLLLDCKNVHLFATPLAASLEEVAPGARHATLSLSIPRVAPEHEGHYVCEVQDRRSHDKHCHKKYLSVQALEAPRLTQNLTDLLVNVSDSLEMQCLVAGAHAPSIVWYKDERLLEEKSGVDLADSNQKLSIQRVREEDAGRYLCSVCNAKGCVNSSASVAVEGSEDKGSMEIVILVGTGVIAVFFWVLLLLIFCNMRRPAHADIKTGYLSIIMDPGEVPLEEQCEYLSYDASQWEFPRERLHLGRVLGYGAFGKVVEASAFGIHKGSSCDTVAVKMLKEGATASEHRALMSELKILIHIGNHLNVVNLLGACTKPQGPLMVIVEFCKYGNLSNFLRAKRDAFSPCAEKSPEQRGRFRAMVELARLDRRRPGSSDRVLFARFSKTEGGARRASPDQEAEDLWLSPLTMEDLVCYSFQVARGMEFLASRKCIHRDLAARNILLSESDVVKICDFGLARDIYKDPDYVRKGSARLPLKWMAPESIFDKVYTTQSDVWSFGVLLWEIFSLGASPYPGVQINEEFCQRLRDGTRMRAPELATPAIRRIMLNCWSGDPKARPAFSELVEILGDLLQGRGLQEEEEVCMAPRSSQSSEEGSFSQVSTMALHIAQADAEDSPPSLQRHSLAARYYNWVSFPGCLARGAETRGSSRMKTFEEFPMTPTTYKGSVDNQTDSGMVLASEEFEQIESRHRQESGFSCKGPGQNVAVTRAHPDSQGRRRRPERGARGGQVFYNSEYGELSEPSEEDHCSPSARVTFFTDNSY
# Sequence of PIM1 (P11309 whole entry): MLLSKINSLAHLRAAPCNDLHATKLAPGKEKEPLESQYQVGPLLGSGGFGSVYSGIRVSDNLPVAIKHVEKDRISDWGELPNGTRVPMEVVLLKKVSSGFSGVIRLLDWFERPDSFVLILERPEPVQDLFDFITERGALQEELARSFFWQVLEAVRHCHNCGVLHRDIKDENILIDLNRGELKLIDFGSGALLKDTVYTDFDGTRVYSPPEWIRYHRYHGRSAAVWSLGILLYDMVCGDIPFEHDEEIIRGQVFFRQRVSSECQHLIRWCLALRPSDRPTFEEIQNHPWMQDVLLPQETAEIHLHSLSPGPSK
structure (smiles),measurement,setting,value
"Cc1ccc(NC=C2C(=O)CCc3c2oc2c(Cl)c(Cl)c(O)cc32)cc1 [4b, 6,7-dichloro-1,4-dihydro-8-hydroxy-4-[(4-methylphenylamino)methylene]dibenzo[b,d]furan-3(2H)-one]",kinase inhibited more than 70% at 10 µM concentration,PIM1,PIM1
same,kinase inhibited more than 70% at 10 µM concentration,FLT4/VEGFR3,FLT4/VEGFR3
